Measured values from patent EP4603105A1, “PHARMACEUTICAL COMPOSITION CONTAINING CYCLIC COMPOUND HAVING SELECTIVE KRAS INHIBITORY EFFECT AGAINST HRAS AND NRAS” (CHUGAI SEIYAKU KABUSHIKI KAISHA, priority 2022, dated 2024).
Where a SMILES comes first, the peptide text is derived from it. Bridges are numbered along the chain shown (N, C = ends). [ ]: non-standard residue; d: D form. The star is where a group is joined. hPhe(3-Cl-4-CF3) = N[C@@H](CCc1ccc(C(F)(F)F)c(Cl)c1)C(=O)O; NPrPhe(4-CF3) = CCCN[C@@H](Cc1ccc(C(F)(F)F)cc1)C(=O)O; NMeGly(cPent) = CN[C@H](C(=O)O)C1CCCC1; Pro(4,4-F2) = O=C(O)[C@@H]1CC(F)(F)CN1; Hyp = O=C(O)[C@@H]1C[C@@H](O)CN1; NMeL = CN[C@@H](CC(C)C)C(=O)O; Morpholide = C1CN(*)CCO1; NMeA = CN[C@@H](C)C(=O)O; Ac5c = NC1(C(=O)O)CCCC1; Aze = O=C(O)[C@@H]1CCN1; Ac4c = NC1(C(=O)O)CCC1; NEtG = CCNCC(=O)O; Sar = CNCC(=O)O

Tests used:
HRAS wild-type protein = HRAS wild-type protein (Homo sapiens, UniProt P01112); test: Binding to HRAS by surface plasmon resonance (SPR), KD and KD ratio to KRAS; settings: ratio of KD for HRAS wild-type protein to KD for KRAS
How it was run: (§1)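 Captured GDP-RAS (~100–300 RU) was exposed to increasing compound concentrations, 75 s per step, in running buffer with 10 µM GDP, 10 mM MgCl2 and 4% DMSO at pH 7.4.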

[1] = system: human lung cancer strain NCI-H441; type: cell-based
How it was run: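 Step one: dispense the test compound in serial DMSO dilutions. Step three: add the reagent and measure […].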

[2] = target: GDP-bound NRAS wild-type protein (Homo sapiens, UniProt P01111); test: Binding to NRAS by surface plasmon resonance (SPR), KD and KD ratio to KRAS; settings: ratio of KD for GDP-bound NRAS wild-type protein to KD for KRAS
How it was run: as §1

HRAS wild-type protein, sequence (P01112 whole entry): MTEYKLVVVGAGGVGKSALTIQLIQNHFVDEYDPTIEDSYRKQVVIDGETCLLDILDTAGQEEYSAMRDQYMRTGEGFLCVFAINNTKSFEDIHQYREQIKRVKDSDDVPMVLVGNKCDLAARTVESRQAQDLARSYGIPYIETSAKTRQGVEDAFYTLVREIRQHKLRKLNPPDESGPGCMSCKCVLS
GDP-bound NRAS wild-type protein, sequence (P01111 whole entry): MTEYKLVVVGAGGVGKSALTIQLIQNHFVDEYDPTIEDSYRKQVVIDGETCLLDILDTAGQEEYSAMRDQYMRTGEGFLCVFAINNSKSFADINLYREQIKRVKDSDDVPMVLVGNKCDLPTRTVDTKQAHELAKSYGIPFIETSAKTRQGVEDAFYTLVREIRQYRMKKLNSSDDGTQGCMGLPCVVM

## CCCN1C(=O)CN(C)C(=O)CNC(=O)[C@H]([C@@H](C)CC)NC(=O)[C@H](CC(C)C)N(C)C(=O)C[C@@H](C(=O)N2CCOCC2)NC(=O)[C@H](C2CCCC2)N(C)C(=O)C2(CCCC2)NC(=O)[C@@H]2C[C@@H](OCC)CN2C(=O)[C@H](CCc2ccc(C(F)(F)F)c(Cl)c2)NC(=O)CN(C)C(=O)[C@@H]1Cc1ccc(C(F)(F)F)cc1 [PP0329] ([NMeL]IG[Sar][NPrPhe(4-CF3)][Sar][hPhe(3-Cl-4-CF3)][Hyp](Et)[Ac5c][NMeGly(cPent)]D-Morpholide; lactam N-11)
HRAS wild-type protein
  HRAS /KRAS: C (A compound having a KD ratio of 0.1 or more and less than 3 is denoted as C)
[1]
  IC50: 65.8 nM
[2]
  NRAS /KRAS: B (a compound having 3 or more and less than 10 is denoted as B)

## CCCN1C(=O)CN(C)C(=O)CNC(=O)[C@H]([C@@H](C)CC)NC(=O)[C@H](CC(C)C)N(C)C(=O)C[C@@H](C(=O)N2CCOCC2)NC(=O)[C@H](C2CCCC2)N(C)C(=O)C2(CCC2)NC(=O)[C@@H]2C[C@@H](OCC)CN2C(=O)[C@H](CCc2ccc(C(F)(F)F)c(Cl)c2)NC(=O)CN(C)C(=O)[C@@H]1Cc1ccc(C(F)(F)F)cc1 [PP0330] ([NMeL]IG[Sar][NPrPhe(4-CF3)][Sar][hPhe(3-Cl-4-CF3)][Hyp](Et)[Ac4c][NMeGly(cPent)]D-Morpholide; lactam N-11)
HRAS wild-type protein
  HRAS /KRAS: C (A compound having a KD ratio of 0.1 or more and less than 3 is denoted as C)
[1]
  IC50: 98.2 nM
[2]
  NRAS /KRAS: B (a compound having 3 or more and less than 10 is denoted as B)

## CCCN1C(=O)CN(C)C(=O)CN(CC)C(=O)[C@H]([C@@H](C)CC)NC(=O)[C@H](CC(C)C)N(C)C(=O)C[C@@H](C(=O)N2CCOCC2)NC(=O)[C@H](C2CCCC2)N(C)C(=O)C2(CCCC2)NC(=O)[C@@H]2CCCN2C(=O)[C@H](CCc2ccc(C(F)(F)F)c(Cl)c2)NC(=O)CN(C)C(=O)[C@@H]1Cc1ccc(C(F)(F)F)cc1 [PP0331] ([NMeL]I[NEtG][Sar][NPrPhe(4-CF3)][Sar][hPhe(3-Cl-4-CF3)]P[Ac5c][NMeGly(cPent)]D-Morpholide; lactam N-11)
HRAS wild-type protein
  HRAS /KRAS: B (a compound having 3 or more and less than 10 is denoted as B)
[1]
  IC50: 84.7 nM
[2]
  NRAS /KRAS: B (a compound having 3 or more and less than 10 is denoted as B)

## CCCN1C(=O)CN(C)C(=O)CN(CC)C(=O)[C@H]([C@@H](C)CC)NC(=O)[C@H](CC(C)C)N(C)C(=O)C[C@@H](C(=O)N2CCOCC2)NC(=O)[C@H](C2CCCC2)N(C)C(=O)C2(CCC2)NC(=O)[C@@H]2CCCN2C(=O)[C@H](CCc2ccc(C(F)(F)F)c(Cl)c2)NC(=O)CN(C)C(=O)[C@@H]1Cc1ccc(C(F)(F)F)cc1 [PP0332] ([NMeL]I[NEtG][Sar][NPrPhe(4-CF3)][Sar][hPhe(3-Cl-4-CF3)]P[Ac4c][NMeGly(cPent)]D-Morpholide; lactam N-11)
HRAS wild-type protein
  HRAS /KRAS: B (a compound having 3 or more and less than 10 is denoted as B)
[1]
  IC50: 167 nM
[2]
  NRAS /KRAS: B (a compound having 3 or more and less than 10 is denoted as B)

## CCCN1C(=O)CN(C)C(=O)CN(CC)C(=O)[C@H]([C@@H](C)CC)NC(=O)[C@H](CC(C)C)N(C)C(=O)C[C@@H](C(=O)N2CCOCC2)NC(=O)[C@H](C2CCCC2)N(C)C(=O)C2(CCCC2)NC(=O)[C@@H]2CC(F)(F)CN2C(=O)[C@H](CCc2ccc(C(F)(F)F)c(Cl)c2)NC(=O)CN(C)C(=O)[C@@H]1Cc1ccc(C(F)(F)F)cc1 [PP0333] ([NMeL]I[NEtG][Sar][NPrPhe(4-CF3)][Sar][hPhe(3-Cl-4-CF3)][Pro(4,4-F2)][Ac5c][NMeGly(cPent)]D-Morpholide; lactam N-11)
HRAS wild-type protein
  HRAS /KRAS: C (A compound having a KD ratio of 0.1 or more and less than 3 is denoted as C)
[1]
  IC50: 41.6 nM
[2]
  NRAS /KRAS: B (a compound having 3 or more and less than 10 is denoted as B)

## CCCN1C(=O)CN(C)C(=O)CN(CC)C(=O)[C@H]([C@@H](C)CC)NC(=O)[C@H](CC(C)C)N(C)C(=O)C[C@@H](C(=O)N2CCOCC2)NC(=O)[C@H](C2CCCC2)N(C)C(=O)C2(CCC2)NC(=O)[C@@H]2CC(F)(F)CN2C(=O)[C@H](CCc2ccc(C(F)(F)F)c(Cl)c2)NC(=O)CN(C)C(=O)[C@@H]1Cc1ccc(C(F)(F)F)cc1 [PP0334] ([NMeL]I[NEtG][Sar][NPrPhe(4-CF3)][Sar][hPhe(3-Cl-4-CF3)][Pro(4,4-F2)][Ac4c][NMeGly(cPent)]D-Morpholide; lactam N-11)
HRAS wild-type protein
  HRAS /KRAS: C (A compound having a KD ratio of 0.1 or more and less than 3 is denoted as C)
[1]
  IC50: 130 nM
[2]
  NRAS /KRAS: B (a compound having 3 or more and less than 10 is denoted as B)

## CCCN1C(=O)CN(C)C(=O)CN(CC)C(=O)[C@H]([C@@H](C)CC)NC(=O)[C@H](CC(C)C)N(C)C(=O)C[C@@H](C(=O)N2CCOCC2)NC(=O)[C@H](C2CCCC2)N(C)C(=O)C2(CCCC2)NC(=O)[C@@H]2C[C@@H](OCC)CN2C(=O)[C@H](CCc2ccc(C(F)(F)F)c(Cl)c2)NC(=O)CN(C)C(=O)[C@@H]1Cc1ccc(C(F)(F)F)cc1 [PP0335] ([NMeL]I[NEtG][Sar][NPrPhe(4-CF3)][Sar][hPhe(3-Cl-4-CF3)][Hyp](Et)[Ac5c][NMeGly(cPent)]D-Morpholide; lactam N-11)
HRAS wild-type protein
  HRAS /KRAS: C (A compound having a KD ratio of 0.1 or more and less than 3 is denoted as C)
[1]
  IC50: 41.7 nM
[2]
  NRAS /KRAS: B (a compound having 3 or more and less than 10 is denoted as B)

## CCCN1C(=O)CN(C)C(=O)CN(CC)C(=O)[C@H]([C@@H](C)CC)NC(=O)[C@H](CC(C)C)N(C)C(=O)C[C@@H](C(=O)N2CCOCC2)NC(=O)[C@H](C2CCCC2)N(C)C(=O)C2(CCC2)NC(=O)[C@@H]2C[C@@H](OCC)CN2C(=O)[C@H](CCc2ccc(C(F)(F)F)c(Cl)c2)NC(=O)CN(C)C(=O)[C@@H]1Cc1ccc(C(F)(F)F)cc1 [PP0336] ([NMeL]I[NEtG][Sar][NPrPhe(4-CF3)][Sar][hPhe(3-Cl-4-CF3)][Hyp](Et)[Ac4c][NMeGly(cPent)]D-Morpholide; lactam N-11)
HRAS wild-type protein
  HRAS /KRAS: B (a compound having 3 or more and less than 10 is denoted as B)
[1]
  IC50: 73.2 nM
[2]
  NRAS /KRAS: B (a compound having 3 or more and less than 10 is denoted as B)

## CCCN1C(=O)CN(C)C(=O)[C@@H]2CCN2C(=O)[C@H]([C@@H](C)CC)NC(=O)[C@H](CC(C)C)N(C)C(=O)C[C@@H](C(=O)N2CCOCC2)NC(=O)[C@H](C2CCCC2)N(C)C(=O)C2(CCCC2)NC(=O)[C@@H]2CCCN2C(=O)[C@H](CCc2ccc(C(F)(F)F)c(Cl)c2)NC(=O)CN(C)C(=O)[C@@H]1Cc1ccc(C(F)(F)F)cc1 [PP0337] ([NMeL]I[Aze][Sar][NPrPhe(4-CF3)][Sar][hPhe(3-Cl-4-CF3)]P[Ac5c][NMeGly(cPent)]D-Morpholide; lactam N-11)
HRAS wild-type protein
  HRAS /KRAS: B (a compound having 3 or more and less than 10 is denoted as B)
[1]
  IC50: 333 nM
[2]
  NRAS /KRAS: B (a compound having 3 or more and less than 10 is denoted as B)

## CCCN1C(=O)CN(C)C(=O)[C@@H]2CCN2C(=O)[C@H]([C@@H](C)CC)NC(=O)[C@H](CC(C)C)N(C)C(=O)C[C@@H](C(=O)N2CCOCC2)NC(=O)[C@H](C2CCCC2)N(C)C(=O)C2(CCCC2)NC(=O)[C@@H]2CC(F)(F)CN2C(=O)[C@H](CCc2ccc(C(F)(F)F)c(Cl)c2)NC(=O)CN(C)C(=O)[C@@H]1Cc1ccc(C(F)(F)F)cc1 [PP0339] ([NMeL]I[Aze][Sar][NPrPhe(4-CF3)][Sar][hPhe(3-Cl-4-CF3)][Pro(4,4-F2)][Ac5c][NMeGly(cPent)]D-Morpholide; lactam N-11)
HRAS wild-type protein
  HRAS /KRAS: B (a compound having 3 or more and less than 10 is denoted as B)
[1]
  IC50: 158 nM
[2]
  NRAS /KRAS: B (a compound having 3 or more and less than 10 is denoted as B)

## CCCN1C(=O)CN(C)C(=O)[C@@H]2CCN2C(=O)[C@H]([C@@H](C)CC)NC(=O)[C@H](CC(C)C)N(C)C(=O)C[C@@H](C(=O)N2CCOCC2)NC(=O)[C@H](C2CCCC2)N(C)C(=O)C2(CCC2)NC(=O)[C@@H]2C[C@@H](OCC)CN2C(=O)[C@H](CCc2ccc(C(F)(F)F)c(Cl)c2)NC(=O)CN(C)C(=O)[C@@H]1Cc1ccc(C(F)(F)F)cc1 [PP0342] ([NMeL]I[Aze][Sar][NPrPhe(4-CF3)][Sar][hPhe(3-Cl-4-CF3)][Hyp](Et)[Ac4c][NMeGly(cPent)]D-Morpholide; lactam N-11)
HRAS wild-type protein
  HRAS /KRAS: B (a compound having 3 or more and less than 10 is denoted as B)
[1]
  IC50: 141 nM
[2]
  NRAS /KRAS: B (a compound having 3 or more and less than 10 is denoted as B)

## CCCN1C(=O)[C@@H]2CCN2C(=O)[C@H](C)N(C)C(=O)[C@H]([C@@H](C)CC)NC(=O)[C@H](CC(C)C)N(C)C(=O)C[C@@H](C(=O)N2CCOCC2)NC(=O)[C@H](C2CCCC2)N(C)C(=O)C2(CCCC2)NC(=O)[C@@H]2CCCN2C(=O)[C@H](CCc2ccc(C(F)(F)F)c(Cl)c2)NC(=O)CN(C)C(=O)[C@@H]1Cc1ccc(C(F)(F)F)cc1 [PP0343] ([NMeL]I[NMeA][Aze][NPrPhe(4-CF3)][Sar][hPhe(3-Cl-4-CF3)]P[Ac5c][NMeGly(cPent)]D-Morpholide; lactam N-11)
HRAS wild-type protein
  HRAS /KRAS: B (a compound having 3 or more and less than 10 is denoted as B)
[1]
  IC50: 47.6 nM
[2]
  NRAS /KRAS: C (A compound having a KD ratio of 0.1 or more and less than 3 is denoted as C)

## CCCN1C(=O)[C@@H]2CCN2C(=O)[C@H](C)N(C)C(=O)[C@H]([C@@H](C)CC)NC(=O)[C@H](CC(C)C)N(C)C(=O)C[C@@H](C(=O)N2CCOCC2)NC(=O)[C@H](C2CCCC2)N(C)C(=O)C2(CCC2)NC(=O)[C@@H]2CCCN2C(=O)[C@H](CCc2ccc(C(F)(F)F)c(Cl)c2)NC(=O)CN(C)C(=O)[C@@H]1Cc1ccc(C(F)(F)F)cc1 [PP0344] ([NMeL]I[NMeA][Aze][NPrPhe(4-CF3)][Sar][hPhe(3-Cl-4-CF3)]P[Ac4c][NMeGly(cPent)]D-Morpholide; lactam N-11)
HRAS wild-type protein
  HRAS /KRAS: B (a compound having 3 or more and less than 10 is denoted as B)
[1]
  IC50: 82.9 nM
[2]
  NRAS /KRAS: C (A compound having a KD ratio of 0.1 or more and less than 3 is denoted as C)
